Assay results from patent publication US20220064214A1, “NOVEL PEPTIDES AND USES THEREOF” (CENNA BIOSCIENCES INC., priority 2019, published 2022).
Square brackets hold non-standard residues; d marks the D form. Ends that are not written are not given here. Peptide text beside a SMILES is read from it.

Experiments:
Aß = test: Efficacy in reducing Aß in APP transgenic mice (analysis in CSF and brain); assay type: in vivo; details: Tg mice over-expressing Aß
Method: Critical to the development of any therapeutic for diseases like AD is the requirement that it can be delivered to the brain. Delivery to brain and efficacy of P8 and 8M2D in reducing Aß was analyzed in the transgenic mice described in Section 6.3 above.
The maximum efficacious dose of 8M2D in Tg mice over-expressing Aß is at just over 50 mg/kg. This gives a 65% reduction in Aß 42. […] Experiments are performed to establish the minimum efficacious dose in Tg mice.

[1] = Metabolic stability of peptides in fresh human plasma (LC/MS/MS); assay type: in vitro ADME
Method: P8, 8M1, and 8M1D were generated according to Example 1 with purities ranging from 98.0% to 99.0%. A primary 1.00 mM stock solution was prepared in either acetonitrile or acetonitrile:water (1:1, v/v) for each peptide. A 0.200 mM working stock was made from the primary stock in acetonitrile:water (1:1, v/v), which was used for the reactions. The primary and working stock solutions were stored at −20° C. when not in use, and they were kept at room temperature for as short a time as possible when in use. Fresh human plasma were maintained by adding sodium heparin as an anticoagulant.
The incubation procedures started when 5.00 μL of 0.2 mM (working stock solutions) of different peptides were added to 0.995 mL of fresh human plasma in a 1.7-mL snap tube. After 3, 8 and 24 hours of incubation, duplicate 50.0 μL aliquots of plasma were removed and placed into extraction tubes containing 150 μL of methanol, which served to quench any reactions, and thus incubations were ended. For each time point, the aliquotes were immediately extracted by vortex mixing and centrifugation. Resulting supernates were stored in High-Performance Liquid Chromatography (HPLC) vials and analyzed by LC/MS/MS after all samples were extracted. Valacyclovir was used as a positive control.
LC/MS/MS analysis of the incubation solutions was conducted by initial separation of the test article peaks using chromatography prior to detection by the mass spectrometer. The LC/MS system was comprised of a HPLC coupled with a TQS-Micro or Quattro Premier (Waters, Milford, Mass.). The mobile phase was nebulized using heated nitrogen in a Z spray source/interface set to electrospray in positive ionization mode for the peptides. The ionized peptides were detected using Tandem Quadropole Mass Spectrometry (MS/MS). The data was acquired using MassLynx (Waters, Milford, Mass.).
HPLC for the peptides and Valacyclovir control were performed with no guard columns, with a flow rate at 0.3 mL/min, with column temperature at 40° C., and autosampler temperature at 10° C. The column for peptides was MacMod ACE 2 Excel C18PFP, 100×2.1-mm, 2.0 μm, and the column for the control was Waters Atlantis T3, 150×2.1-mm, 5.0 μm. The injection loop and volumn for peptides were 50.0 μL and 20.0 μL respectively, and the ones for controls were 20.0 μL and 2.00 μL. For the Mass Spectrometer for the peptides and the Valacyclovir control, the source temperature was set to be 150° C., desolvation temperature was set to be 350° C., and polarity was set to be positive mode of electrospray ionization. Other parameters in HPLC and Mass Spectrometer are shown in Table 2.1, Table 2.2 and Table 3 below.

| Compound | efficacy on increasing the dose 5× (in words) (Aß; SC) | maximum efficacious dose (Aß; SC dosing) | reduction in Aß 42 (Aß; SC, at the maximum efficacious dose (just over 50 mg/kg)) [%] | stability in fresh human plasma (in words) [1] | % Remaining ([1]; fresh human plasma, 0 h incubation) [%] | remaining at 3 h, 1 µM ([1]; fresh human plasma, 3 h incubation) [%] | remaining at 8 h, 1 µM ([1]; fresh human plasma, 8 h incubation) [%] | remaining at 24 h, 1 µM ([1]; fresh human plasma, 24 h incubation) [%] |
| --- | --- | --- | --- | --- | --- | --- | --- | --- |
| CC(=O)N[C@H](CC(=O)O)C(=O)N[C@@H](CCC(=O)O)C(=O)N[C@@H](CCC(=O)O)C(=O)N[C@@H](CCC(=O)O)C(=O)N[C@@H](CC(=O)O)C(=O)N[C@@H](CCC(=O)O)C(=O)N[C@@H](CCC(=O)O)C(=O)N[C@@H](CC(C)C)C(N)=O [8M2D, Ac-dEEEDEEL-NH2] (Ac-[dD]EEEDEEL-NH2) | only a marginal increase in efficacy | over 50 mg/kg | 65 |  |  |  |  |  |
| DEEEDEEL-OH [P8, DEEEDEEL, reference compound] |  |  |  | relatively stable | 100 | 115 | 99.7 | 72 |
